Data: EP2565188A1, “Novel photoactivatable paclitaxel derivatives and uses thereof, in particular in cellbiology and cancer treatment” (Max-Planck-Gesellschaft zur Förderung der Wissenschaften …, priority 2011, dated 2013)

Tests used:
[1] = Solubility test of 10 µM solutions in 1:1000 DMSO:PIPES buffer; assay type: physicochemical
Protocol: 10 mM solutions of PTX derivatives in DMSO were prepared. All substances were soluble in DMSO at this concentration. 10 µM solutions of were obtained by 1:1000 dilution of the stock solution into 80 mM PIPES buffer pH 6.8, containing 2 mM MgCl2 and 1 mM EGTA. Table A: solubility test of 10 µM solutions of PTX derivatives in 1:1000 DMSO:PIPES buffer

[2] = system: HeLa cells; assay: Live cell imaging of the microtubule network (Tubulin Tracker / DRAQ5, CLSM); assay type: cell-based, Human; details: for cell morphology / mitosis in microscopy images / microtubule staining by Tubulin Tracker (fluorescence CLSM): 10 µM; for cell morphology / mitosis in microscopy images / concentrations at which the derivative bound to tubulin / inhibition of PTX bioactivity / binding of PTX to β-tubulin by the cage / concentration triggering the multiple nuclei pattern / microtubule staining by Tubulin Tracker (fluorescence CLSM): 24 h; for inhibition of PTX bioactivity / binding of PTX to β-tubulin by the cage: concentrations up to 10 µM
Protocol: (§1) Human cervix carcinoma cells, HeLa cells (#ACC57, DMSZ, Germany), were cultured in DMEM medium (Invitrogen) supplemented with 10% fetal calf serum (FCS, Gibco) in a humidified incubator at 37°C/5%CO2.
In order to visualize the influence of the PTX derivatives in the microtubule network of the cell, a live cell microscopy analysis of HeLa cells after incubation with 10 µM PTX derivatives for 24 hours was performed.
Specifically, microtubules and nuclei of HeLa cells were fluorescently stained with Tubulin Tracker (Invitrogen) and DRAQ5 (biostatus, United Kingdom) respectively, and imaged by a Leica TCS SP5 confocal laser scanning microscopy (CLSM). 30x10^4 HeLa cells were seeded in 8-well chamber slides (Lab-Tek, nunc, Germany) and the culture medium was replaced after ~16 h by compound supplemented medium (250 µL, DMEM, 10% FCS, 1% DMSO) or medium without compound (DMEM, 10% FCS, 1% DMSO) as a specific control. After 24h, cells were carefully washed with Hank's Buffered Saline Solution (HBSS, with Ca^2+ and Mg^2+, Invitrogen) and the buffer was replaced by a staining solution containing 250 nM Tubulin Tracker (Invitrogen) and 5 µM DRAQ5. The cells were stained for 30 min at 37°C/5% CO2 in a humidified incubator. The staining solution was replaced by HBSS and the cells were directly imaged with a 100x plan apochromat (1.4 NA) oil immersion objective on the CLSM system equipped with a CO2 incubator and a temperature control. Tubulin Tracker was excited with an argon laser (488 nm) and the emission was detected by 500-580 nm. DRAQ5 was excited with a HeNe laser (633 nm) and the emission was detected by 650-730 nm. The images have a voxel height and width of 90 nm. Bright field images grabbed with an Olympus IX-70 inverted microscope with a 20x phase contrast objective. Image processing performed with Leica LAS AF lite and ImageJ (Fiji).

[3] = system: HeLa cells; assay type: cell-based, Human; details: for cytotoxicity: concentrations at least up to 10 µM
Protocol: as §1
In order to evaluate the bioactivity of the caged PCT derivatives, their cytotoxicity was tested in vitro using HeLa cells. Cells were incubated with PTX and caged PTX derivatives at concentrations between 0.01 and 10 µM.
The effect of PTX and derivatives on cell vitality was measured in a combined assay determining cytotoxicity and cell number by propidium iodide (PI) staining. HeLa cells (2x10^4 cells/well) were diluted in cell culture medium (DMEM, 10 % FCS) and seeded in 96 well-plates (black plate, clear bottom, corning, Amsterdam, Netherlands). The culture medium was replaced after ~16h by compound supplemented medium (200 µL, DMEM, 10 % FCS, 1 % DMSO) or medium without compound (DMEM, 10 % FCS, 1 % DMSO) as a specific control. After 48 h, dead cells with permeable cell membranes were stained with PI ([…], 15 min at 37°C, 5% CO2) and the PI fluorescence intensity was measured with a fluorescence plate reader (excitation wavelength 530 nm, emission wavelength 620 nm, Tecan Infinite M1000, Austria). Subsequently, the cells were lysed with 2% Triton X-100 diluted in DMEM (0.3% Triton X-100 per well, 15 min at 37°C, 5% CO2 and the PI fluorescence was measured again. The vitality of the cells was calculated by the ratio of dead cells (DC) before lyses and the total cell number (TCN) after lyses (1-DC/TCN).

[4] = Photocleavage study: irradiation at 360 nm, composition by HPLC; assay type: physicochemical; details: 1 mM, 5% water in acetonitril, share of the labelled species
Protocol: The photolysis of the compounds 2'-Nvoc-PTX and 2',7-bisNvoc-PTX was followed by UV and HPLC analysis of the correspondent solutions after exposure to light at λmax = 360 nm (2.7 mW/cm^2).
3 ml of a 1 mM solution of caged PTX in acetonitrile containing 5% water was placed into a quartz cuvette and was exposed at 360 nm for different irradiation times. Aliquots of 50 µl were taken after various irradiation times, and each aliquot was splitted in two parts. 20 µl were diluted to 400 µl to obtain 50 µM solution for UV-Vis characterisation. The 30 µl left from each aliquot were injected into the HPLC (20 µl loop, analytical column) in order to estimate the composition of the irradiated mixture.
Photocleavage of compound 2',7-bisNvoc-PTX was expected to yield the mono-substituted species 2'-Nvoc-PTX and 7-Nvoc-PTX as intermediates that can be further photolyzed to afford free PTX. In fact, HPLC analysis (Fig. 1) confirmed the presence of 2'-Nvoc-PTX (retention time, r.t.= 16.7 min) and 7-Nvoc-PTX (r.t. = 18.2 min) together with the starting compound 2',7-bisNvoc-PTX (r.t. = 21.3 min) and the fully deprotected PTX (r.t. = 11.1 min). The ratio of these compounds within the composition of the irradiated mixture changes with the exposure dose. Fig. 2 and Table B below show the compositional evolution of the mixture with increasing irradiation time as obtained by HPLC analysis. […] However, the influence of other structural factors in the photolytic mechanism cannot be ruled out. Compound 7-Nvoc-PTX could also be isolated from the irradiated mixture in milligram scale. Table B. Molar composition of a solution of 2',7-bisNvoc-PTX (1 mM, 5% water in acetonitril) after different irradiation times, as determined by analysis of HPLC graphs (Fig. 2)

[5] = 10 µM in 1:1000 DMSO:PIPES buffer (80 mM, pH 6.8), time 1 hr
[6] = 10 µM in 1:1000 DMSO:PIPES buffer (80 mM, pH 6.8), time 8 hrs
[7] = 10 µM in 1:1000 DMSO:PIPES buffer (80 mM, pH 6.8), time 24 hrs
[8] = 10 µM in 1:1000 DMSO:PIPES buffer (80 mM, pH 6.8), time 30 hrs
[9] = 10 µM in 1:1000 DMSO:PIPES buffer (80 mM, pH 6.8, 2 mM MgCl2, 1 mM EGTA), time 5 min
[10] = 360 nm (2.7 mW/cm^2), irradiation time 0 min
[11] = 360 nm, irradiation time 60 min
[12] = 360 nm, irradiation time 270 min
[13] = 360 nm, irradiation time 450 min
[14] = 360 nm, irradiation time 570 min
[15] = 360 nm, irradiation time 735 min
[16] = 360 nm, irradiation time 820 min
[17] = 360 nm, irradiation time 1585 min

Row | SMILES | solubility test (appearance of solution) [1, 5] | solubility test (appearance of solution) [1, 6] | solubility test (appearance of solution) [1, 7] | solubility test (appearance of solution) [1, 8] | solubility test (appearance of solution) [1, 9] | cell morphology / mitosis in microscopy images [2] | concentrations at which the derivative bound to tubulin [2] [nM] | inhibition of PTX bioactivity / binding of PTX to β-tubulin by the cage [2] | Molar composition of a solution of 2',7-bisNvoc-PTX after irradiation [4, 10] [%] | Molar composition of a solution of 2',7-bisNvoc-PTX after irradiation [4, 11] [%] | Molar composition of a solution of 2',7-bisNvoc-PTX after irradiation [4, 12] [%] | Molar composition of a solution of 2',7-bisNvoc-PTX after irradiation [4, 13] [%] | Molar composition of a solution of 2',7-bisNvoc-PTX after irradiation [4, 14] [%] | Molar composition of a solution of 2',7-bisNvoc-PTX after irradiation [4, 15] [%] | Molar composition of a solution of 2',7-bisNvoc-PTX after irradiation [4, 16] [%] | Molar composition of a solution of 2',7-bisNvoc-PTX after irradiation [4, 17] [%] | microtubule staining by Tubulin Tracker (fluorescence CLSM) [2] | cytotoxicity ([3]; 48 h) | also measured
1 | COc1cc(COC(=O)O[C@@H](C(=O)O[C@H]2C[C@@]3(O)[C@@H](OC(=O)c4ccccc4)[C@@H]4[C@]5(OC(C)=O)CO[C@@H]5C[C@H](O)[C@@]4(C)C(=O)[C@H](OC(C)=O)C(=C2C)C3(C)C)[C@@H](NC(=O)c2ccccc2)c2ccccc2)c([N+](=O)[O-])cc1OC [2'-Nvoc-PTX] | clear solution | clear solution | turbid solution | Suspension | clear solution | showed similar results to free PTX | > 10 | not able to completely inhibit PTX bioactivity | 0 | 6.3 | 17.4 | 27.6 | 32.3 | 35.6 | 38.1 | 25.6 | – | – | concentration triggering the multiple nuclei pattern ([2]; patterns similar between the compounds (Fig. 6)): 0.05 µM; reduction in vitality ([3]; 48 h, at 0.5 µM): ~ 25%; concentration range over which the derivative can be regarded as caged PTX ([3]; vitality results): < 0.1 µM
2 | COc1cc(COC(=O)O[C@H]2C[C@H]3OC[C@@]3(OC(C)=O)[C@H]3[C@H](OC(=O)c4ccccc4)[C@]4(O)C[C@H](OC(=O)[C@H](O)[C@@H](NC(=O)c5ccccc5)c5ccccc5)C(C)=C([C@@H](OC(C)=O)C(=O)[C@]23C)C4(C)C)c([N+](=O)[O-])cc1OC [7-Nvoc-PTX] | – | – | – | – | – | formed an adherent monolayer similar to the negative control | > 1000 | not able to completely inhibit PTX bioactivity | 0 | 3.2 | 8.6 | 15.3 | 14.9 | 18.4 | 16.4 | 7.8 | microtubules were less stained, tripolar spindles appeared and the cells developed multiple nuclei with different sizes | did not show any cytotoxicity | concentration triggering the multiple nuclei pattern ([2]; pattern similar to 2 nM PTX (Fig. 6)): 10 µM; prevention of mitotic blocking relative to 2'-Nvoc-PTX ([2]; at the concentration tested (10 µM)): ~ 200 fold
3 | COc1cc(COC(=O)O[C@H]2C[C@H]3OC[C@@]3(OC(C)=O)[C@H]3[C@H](OC(=O)c4ccccc4)[C@]4(O)C[C@H](OC(=O)[C@H](OC(=O)OCc5cc(OC)c(OC)cc5[N+](=O)[O-])[C@@H](NC(=O)c5ccccc5)c5ccccc5)C(C)=C([C@@H](OC(C)=O)C(=O)[C@]23C)C4(C)C)c([N+](=O)[O-])cc1OC [2',7-bisNvoc-PTX] | clear solution | clear solution | clear solution | turbid solution | clear solution | – | – | effectively inhibited binding of PTX to β-tubulin | 100 | 90.5 | 72.3 | 51.1 | 42.2 | 27.5 | 24.3 | 6.1 | evenly stained by Tubulin Tracker and showed similar patterns than the negative control | did not show any cytotoxicity | vitality of cells after incubation with irradiated solutions ([3]; irradiated solutions of 2',7-bisNvoc-PTX, longer irradiation times): 0.5; cytotoxic effects of irradiated solutions ([3]; irradiated solutions of 2',7-bisNvoc-PTX, shortest irradiation time): Cytotoxic effects were visible already at the shortest irradiation time
